Source: patent EP4810052A2, “HCRHR2 SELECTIVE POLYPEPTIDES” (Gubra A/S, priority 2023, dated 2026)
Starred links: 1 amine or outer side, 2 acyl side, 3 side chain; linkers in the order of their positions; H or OH if unused. Non-standard residues stand in square brackets, D forms with d. Residues, ends and D or L forms follow the SMILES beside them. Groups on a side chain read outwards from the residue. *: point of attachment. C20 diacid = O=C(O)CCCCCCCCCCCCCCCCCCC(=O)*; Pro(4S-NH2) = N[C@@H]1CN[C@H](C(=O)O)C1; γGlu = O=C(O)[C@H](CCC(=O)[*:2])N[*:1]; Nle = CCCC[C@H](N)C(=O)O; AEEA = NCCOCCOCC(=O)O

Tests used:
[1] = biological target: T1, hCRHR2 (Homo sapiens, UniProt Q13324); assay: HTRF cAMP assay, determination of hCRHR2 potency (peptide libraries 5 conc., purified peptides 11 conc.); format: cell-based; details: library peptides; matched molecular pairs L vs Nle in position X^38; read-out: Potency hCRHR2 pEC50 (converted)
T1 sequence (Q13324 1-411): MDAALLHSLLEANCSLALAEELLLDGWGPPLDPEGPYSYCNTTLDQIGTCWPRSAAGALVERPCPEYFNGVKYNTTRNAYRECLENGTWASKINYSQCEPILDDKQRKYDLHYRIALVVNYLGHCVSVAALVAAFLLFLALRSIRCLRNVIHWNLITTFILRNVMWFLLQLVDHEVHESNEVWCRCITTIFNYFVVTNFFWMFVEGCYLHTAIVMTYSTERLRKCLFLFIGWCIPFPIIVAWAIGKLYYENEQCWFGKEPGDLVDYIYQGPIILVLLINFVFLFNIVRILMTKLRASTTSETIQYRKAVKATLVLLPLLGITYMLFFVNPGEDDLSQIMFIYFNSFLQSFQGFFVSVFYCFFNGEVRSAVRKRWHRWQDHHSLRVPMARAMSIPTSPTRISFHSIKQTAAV
How it was run: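 CHO-K1 cells stably expressing human CRHR2 were thawed from frozen stocks immediately before use and assayed in suspension with agonist peptides. cAMP was measured by time-resolved FRET in a competitive immunoassay between cryptate-labelled anti-cAMP antibody and d2-labelled cAMP. EC50 values came from nonlinear regression, sigmoid variable-slope fit.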

[2] = biological target: T2, hCRHR1 (Homo sapiens, UniProt P34998); assay: HTRF cAMP assay, determination of hCRHR1 potency (peptide libraries 5 conc., purified peptides 11 conc.); format: cell-based; details: library peptides; matched molecular pairs L vs Nle in position X^38; read-out: Potency hCRHR1 pEC50 (converted)
T2 sequence (P34998 24-415): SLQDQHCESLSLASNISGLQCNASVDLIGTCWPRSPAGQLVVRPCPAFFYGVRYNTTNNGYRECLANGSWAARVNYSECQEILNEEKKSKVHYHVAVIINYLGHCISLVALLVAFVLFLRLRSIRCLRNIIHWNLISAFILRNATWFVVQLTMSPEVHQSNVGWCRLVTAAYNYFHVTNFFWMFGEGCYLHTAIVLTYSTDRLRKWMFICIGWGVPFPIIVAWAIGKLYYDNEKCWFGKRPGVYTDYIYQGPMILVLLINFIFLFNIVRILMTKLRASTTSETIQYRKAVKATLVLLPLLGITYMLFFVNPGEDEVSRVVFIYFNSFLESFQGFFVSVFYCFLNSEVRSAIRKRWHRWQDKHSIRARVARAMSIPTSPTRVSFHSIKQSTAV
How it was run: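 CHO-K1 cells stably expressing human CRHR1, thawed from frozen stocks just before use, were stimulated in suspension with agonist peptides. cAMP was measured by HTRF competitive immunoassay (cryptate anti-cAMP antibody vs d2-cAMP).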

With `CCCC[C@H](NC(=O)[C@@H](NC(=O)[C@H](CCC(=O)O)NC(=O)[C@H](C)NC(=O)[C@H](CC(N)=O)NC(=O)[C@@H](NC(=O)[C@H](CCCCNC(=O)COCCOCCNC(=O)COCCOCCNC(=O)CC[C@H](NC(=O)CC[C@H](NC(=O)CCCCCCCCCCCCCCCCCCC(=O)O)C(=O)O)C(=O)O)NC(=O)[C@H](C)NC(=O)[C@H](CCC(N)=O)NC(=O)[C@H](CCC(=O)O)NC(=O)[C@H](CCCNC(=N)N)NC(=O)[C@H](CC(C)C)NC(=O)[C@H](CCC(N)=O)NC(=O)[C@H](CCCNC(=N)N)NC(=O)[C@H](C)NC(=O)[C@H](CCCNC(=N)N)NC(=O)[C@H](C)NC(=O)[C@H](CCC(N)=O)NC(=O)[C@H](CCC(=O)O)NC(=O)[C@H](CC(C)C)NC(=O)[C@H](CC(C)C)NC(=O)[C@@H](NC(=O)[C@H](CCC(N)=O)NC(=O)[C@H](CC(C)C)NC(=O)[C@H](CC(C)C)NC(=O)CNC(=O)[C@@H](NC(=O)[C@@H]1CCCN1C(=O)[C@@H](NC(=O)[C@H](CC(=O)O)NC(=O)[C@H](CC(C)C)NC(=O)[C@H](CO)NC(=O)[C@H](CC(C)C)NC(=O)[C@@H](NC(=O)[C@@H](N)[C@@H](C)CC)C(C)C)C(C)C)[C@@H](C)CC)[C@@H](C)CC)[C@@H](C)O)[C@@H](C)CC)C(=O)N[C@@H](C)C(=O)N[C@@H](CCC(=O)O)C(=O)N[C@H](C(N)=O)C(C)C` [compound 73] (H-IVLSLDVPIGLLQILLEQARARQLREQAK([AEEA-AEEA-γGlu-γGlu-C20 diacid])TNAEI[Nle]AEV-NH2) the EC50 [1] was 0.2 nM and the EC50 [2] was 3.98 nM.
Work on `CC[C@H](C)[C@H](N)C(=O)N[C@H](C(=O)N[C@@H](CC(C)C)C(=O)N[C@@H](CO)C(=O)N[C@@H](CC(C)C)C(=O)N[C@@H](CC(=O)O)C(=O)N[C@H](C(=O)N1CCC[C@H]1C(=O)N[C@H](C(=O)NCC(=O)N[C@@H](CC(C)C)C(=O)N[C@@H](CC(C)C)C(=O)N[C@@H](CCC(N)=O)C(=O)N[C@H](C(=O)N[C@@H](CC(C)C)C(=O)N[C@@H](CC(C)C)C(=O)N[C@@H](CCC(=O)O)C(=O)N[C@@H](CCC(N)=O)C(=O)N[C@@H](C)C(=O)N[C@@H](CCCNC(=N)N)C(=O)N[C@@H](C)C(=O)N[C@@H](CCCNC(=N)N)C(=O)N[C@@H](C)C(=O)N[C@@H](C)C(=O)N[C@@H](CCCNC(=N)N)C(=O)N[C@@H](CCC(=O)O)C(=O)N[C@@H](CCC(=O)O)C(=O)N[C@@H](C)C(=O)N[C@@H](CCCCNC(=O)COCCOCCNC(=O)COCCOCCNC(=O)CC[C@H](NC(=O)CC[C@H](NC(=O)CCCCCCCCCCCCCCCCCCC(=O)O)C(=O)O)C(=O)O)C(=O)N[C@H](C(=O)N[C@@H](CC(N)=O)C(=O)N[C@@H](C)C(=O)N[C@@H](CCC(=O)O)C(=O)N[C@H](C(=O)N[C@@H](CC(C)C)C(=O)N[C@@H](C)C(=O)N[C@@H](CCC(=O)O)C(=O)N[C@H](C(N)=O)[C@@H](C)CC)[C@@H](C)CC)[C@@H](C)O)[C@@H](C)CC)[C@@H](C)CC)C(C)C)C(C)C` [compound 74] (H-IVLSLDVPIGLLQILLEQARARAAREEAK([AEEA-AEEA-γGlu-γGlu-C20 diacid])TNAEILAEI-NH2) yielded an EC50 [1] of 2 nM and an EC50 [2] of 158000 nM.
`CCCC[C@H](NC(=O)[C@@H](NC(=O)[C@H](CCC(=O)O)NC(=O)[C@H](C)NC(=O)[C@H](CC(N)=O)NC(=O)[C@@H](NC(=O)[C@H](CCCCNC(=O)COCCOCCNC(=O)COCCOCCNC(=O)CC[C@H](NC(=O)CC[C@H](NC(=O)CCCCCCCCCCCCCCCCCCC(=O)O)C(=O)O)C(=O)O)NC(=O)[C@H](C)NC(=O)[C@H](CCC(=O)O)NC(=O)[C@H](CCC(=O)O)NC(=O)[C@H](CCCNC(=N)N)NC(=O)[C@H](C)NC(=O)[C@H](C)NC(=O)[C@H](CCCNC(=N)N)NC(=O)[C@H](C)NC(=O)[C@H](CCCNC(=N)N)NC(=O)[C@H](C)NC(=O)[C@H](CCC(N)=O)NC(=O)[C@H](CCC(=O)O)NC(=O)[C@H](CC(C)C)NC(=O)[C@H](CC(C)C)NC(=O)[C@@H](NC(=O)[C@H](CCC(N)=O)NC(=O)[C@H](CC(C)C)NC(=O)[C@H](CC(C)C)NC(=O)CNC(=O)[C@@H](NC(=O)[C@@H]1CCCN1C(=O)[C@@H](NC(=O)[C@H](CC(=O)O)NC(=O)[C@H](CC(C)C)NC(=O)[C@H](CO)NC(=O)[C@H](CC(C)C)NC(=O)[C@@H](NC(=O)[C@@H](N)[C@@H](C)CC)C(C)C)C(C)C)[C@@H](C)CC)[C@@H](C)CC)[C@@H](C)O)[C@@H](C)CC)C(=O)N[C@@H](C)C(=O)N[C@@H](CCC(=O)O)C(=O)N[C@H](C(N)=O)[C@@H](C)CC` [compound 75] (H-IVLSLDVPIGLLQILLEQARARAAREEAK([AEEA-AEEA-γGlu-γGlu-C20 diacid])TNAEI[Nle]AEI-NH2) was tested, and the EC50 [1] was 0.794 nM and the EC50 [2] was 158000 nM.
In the case of `CC[C@H](C)[C@H](N)C(=O)N[C@H](C(=O)N[C@@H](CC(C)C)C(=O)N[C@@H](CO)C(=O)N[C@@H](CC(C)C)C(=O)N[C@@H](CC(=O)O)C(=O)N[C@H](C(=O)N1C[C@@H](N)C[C@H]1C(=O)N[C@H](C(=O)NCC(=O)N[C@@H](CC(C)C)C(=O)N[C@@H](CC(C)C)C(=O)N[C@@H](CCC(N)=O)C(=O)N[C@H](C(=O)N[C@@H](CC(C)C)C(=O)N[C@@H](CC(C)C)C(=O)N[C@@H](CCC(=O)O)C(=O)N[C@@H](CCC(N)=O)C(=O)N[C@@H](C)C(=O)N[C@@H](CCCNC(=N)N)C(=O)N[C@@H](C)C(=O)N[C@@H](CCCNC(=N)N)C(=O)N[C@H](C(=O)N[C@@H](C)C(=O)N[C@@H](CCCNC(=N)N)C(=O)N[C@@H](CCC(=O)O)C(=O)N[C@@H](CCC(N)=O)C(=O)N[C@@H](C)C(=O)N[C@@H](CCCCNC(=O)COCCOCCNC(=O)COCCOCCNC(=O)CC[C@H](NC(=O)CC[C@H](NC(=O)CCCCCCCCCCCCCCCCCCC(=O)O)C(=O)O)C(=O)O)C(=O)N[C@H](C(=O)N[C@@H](CC(N)=O)C(=O)N[C@@H](C)C(=O)N[C@@H](CCC(=O)O)C(=O)N[C@H](C(=O)N[C@@H](CC(C)C)C(=O)N[C@@H](C)C(=O)N[C@@H](CCC(=O)O)C(=O)N[C@H](C(N)=O)C(C)C)[C@@H](C)CC)[C@@H](C)O)C(C)C)[C@@H](C)CC)[C@@H](C)CC)C(C)C)C(C)C` [compound 76] (H-IVLSLDV[Pro(4S-NH2)]IGLLQILLEQARARVAREQAK([AEEA-AEEA-γGlu-γGlu-C20 diacid])TNAEILAEV-NH2), the EC50 [1] is reported as 1.58 nM and the EC50 [2] is reported as 1.58 nM.
`CCCC[C@H](NC(=O)[C@@H](NC(=O)[C@H](CCC(=O)O)NC(=O)[C@H](C)NC(=O)[C@H](CC(N)=O)NC(=O)[C@@H](NC(=O)[C@H](CCCCNC(=O)COCCOCCNC(=O)COCCOCCNC(=O)CC[C@H](NC(=O)CC[C@H](NC(=O)CCCCCCCCCCCCCCCCCCC(=O)O)C(=O)O)C(=O)O)NC(=O)[C@H](C)NC(=O)[C@H](CCC(N)=O)NC(=O)[C@H](CCC(=O)O)NC(=O)[C@H](CCCNC(=N)N)NC(=O)[C@H](C)NC(=O)[C@@H](NC(=O)[C@H](CCCNC(=N)N)NC(=O)[C@H](C)NC(=O)[C@H](CCCNC(=N)N)NC(=O)[C@H](C)NC(=O)[C@H](CCC(N)=O)NC(=O)[C@H](CCC(=O)O)NC(=O)[C@H](CC(C)C)NC(=O)[C@H](CC(C)C)NC(=O)[C@@H](NC(=O)[C@H](CCC(N)=O)NC(=O)[C@H](CC(C)C)NC(=O)[C@H](CC(C)C)NC(=O)CNC(=O)[C@@H](NC(=O)[C@@H]1C[C@H](N)CN1C(=O)[C@@H](NC(=O)[C@H](CC(=O)O)NC(=O)[C@H](CC(C)C)NC(=O)[C@H](CO)NC(=O)[C@H](CC(C)C)NC(=O)[C@@H](NC(=O)[C@@H](N)[C@@H](C)CC)C(C)C)C(C)C)[C@@H](C)CC)[C@@H](C)CC)C(C)C)[C@@H](C)O)[C@@H](C)CC)C(=O)N[C@@H](C)C(=O)N[C@@H](CCC(=O)O)C(=O)N[C@H](C(N)=O)C(C)C` [compound 77] (H-IVLSLDV[Pro(4S-NH2)]IGLLQILLEQARARVAREQAK([AEEA-AEEA-γGlu-γGlu-C20 diacid])TNAEI[Nle]AEV-NH2) showed an EC50 [1] of 0.501 nM and an EC50 [2] of 3.16 nM.
